Results on ten molecules are retold here after US9370569B2 (priority 2014, dated 2016).

Bounds are passed on as bounds.

Chain of influenza RNA polymerase (P03431 whole entry, looked up): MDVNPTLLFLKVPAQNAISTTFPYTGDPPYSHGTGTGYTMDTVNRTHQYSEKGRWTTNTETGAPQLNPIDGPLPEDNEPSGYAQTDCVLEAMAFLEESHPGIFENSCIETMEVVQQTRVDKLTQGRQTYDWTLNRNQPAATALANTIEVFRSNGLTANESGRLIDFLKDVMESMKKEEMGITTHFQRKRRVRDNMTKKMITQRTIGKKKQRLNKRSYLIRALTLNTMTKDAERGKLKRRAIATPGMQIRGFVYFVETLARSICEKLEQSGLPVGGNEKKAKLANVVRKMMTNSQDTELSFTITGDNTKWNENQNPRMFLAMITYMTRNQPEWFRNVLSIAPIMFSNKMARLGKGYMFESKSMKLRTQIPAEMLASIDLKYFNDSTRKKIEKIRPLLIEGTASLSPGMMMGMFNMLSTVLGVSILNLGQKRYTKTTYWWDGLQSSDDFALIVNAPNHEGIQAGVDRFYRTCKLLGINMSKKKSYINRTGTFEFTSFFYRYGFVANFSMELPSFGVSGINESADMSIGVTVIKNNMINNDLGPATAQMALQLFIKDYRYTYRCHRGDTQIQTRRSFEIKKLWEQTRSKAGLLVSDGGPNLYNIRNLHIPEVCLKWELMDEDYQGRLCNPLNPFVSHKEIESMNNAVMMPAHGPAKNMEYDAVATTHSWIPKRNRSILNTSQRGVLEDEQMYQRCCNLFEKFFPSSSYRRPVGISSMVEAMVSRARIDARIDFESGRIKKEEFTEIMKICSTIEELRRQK

The experiment addresses influenza RNA polymerase (Influenza A virus, UniProt P03431). Briefly: Influenza polymerase assay (radiolabeled nucleotide incorporation). To be noted: nucleotide triphosphates in influenza polymerase assay. The format is biochemical.
Turning to `O=c1ccn([C@@H]2O[C@@](COP(=O)(O)OP(=O)(O)OP(=O)(O)O)(C(F)F)[C@@H](O)[C@H]2O)c(=O)[nH]1` [TPP-1], the IC50 was in the range of 10 to 100 µM.
To `O=c1[nH]c(=O)n([C@@H]2O[C@@](COP(=O)(O)OP(=O)(O)OP(=O)(O)O)(C(F)F)[C@@H](O)[C@H]2O)cc1Cl` [TPP-2] belongs 10 to 100 µM; to `O=c1[nH]c(=O)n([C@@H]2O[C@@](COP(=O)(O)OP(=O)(O)OP(=O)(O)O)(C(F)F)[C@@H](O)[C@H]2O)cc1F` [TPP-3], 10 to 100 µM.
The same measure for `Nc1ccn([C@@H]2O[C@@](COP(=O)(O)OP(=O)(O)OP(=O)(O)O)(C(F)F)[C@@H](O)[C@H]2O)c(=O)n1` [TPP-4]: less than 10 µM; for `Nc1nc(=O)n([C@@H]2O[C@@](COP(=O)(O)OP(=O)(O)OP(=O)(O)O)(C(F)F)[C@@H](O)[C@H]2O)cc1Cl` [TPP-5]: 10 to 100 µM; for `Nc1nc(=O)n([C@@H]2O[C@@](COP(=O)(O)OP(=O)(O)OP(=O)(O)O)(C(F)F)[C@@H](O)[C@H]2O)cc1F` [TPP-6]: less than 10 µM.
To `Nc1nc(N)c2ncn([C@@H]3O[C@@](COP(=O)(O)OP(=O)(O)OP(=O)(O)O)(C(F)F)[C@@H](O)[C@H]3O)c2n1` [TPP-7] belongs more than 100 µM.
For the molecule `Nc1ncnc2c1ncn2[C@@H]1O[C@@](COP(=O)(O)OP(=O)(O)OP(=O)(O)O)(C(F)F)[C@@H](O)[C@H]1O` [TPP-8], the half-inhibitory concentration (IC50) was less than 10 µM.
In turn, `Nc1ncnc2ncn([C@@H]3O[C@@](COP(=O)(O)OP(=O)(O)OP(=O)(O)O)(C(F)F)[C@@H](O)[C@H]3O)c12` [TPP-9] registered a half-inhibitory concentration (IC50) of less than 10 µM.
The same measure for `Nc1nc2c(ncn2[C@@H]2O[C@@](COP(=O)(O)OP(=O)(O)OP(=O)(O)O)(C(F)F)[C@@H](O)[C@H]2O)c(=O)[nH]1` [TPP-10]: less than 10 µM.

A word on the IC50: it is the concentration at which inhibition is half-maximal.
